Experimental data from patent US11691962B2 (eXIthera Pharmaceuticals, Inc., priority 2018, dated 2023).
pIC50: −log10 of the molar value.

How the values were obtained:
Factor XIa = Factor XIa (Homo sapiens (Human), UniProt P03951); test: Factor XIa enzyme inhibition assay (dose response, fluorogenic AMC substrate); format: biochemical; conditions: read-out: hFXIa IC50
How it was run: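 Human FXIa at 0.25 nM final with 50 μM final PyroGlu-Pro-Arg-AMC in 20 mM Hepes pH 7.4, 150 mM NaCl, 0.02% Tween 20. Two-fold serial compound dilutions; fluorescence read every minute for 30 min at 30° C. IC50 from a four-parameter Hill fit.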

Thrombin = Thrombin (Homo sapiens (Human), UniProt P00734); test: Dose response assay for protease inhibitors: thrombin; format: biochemical; conditions: selectivity, thrombin over Factor XIa
How it was run: (§1)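 Fluorogenic AMC-peptide cleavage in 20 mM Hepes pH 7.4, 150 mM NaCl, 0.02% Tween 20; 100 μM stock substrate dilution (Glp-Pro-Arg-AMC for thrombin/trypsin; Pro-Phe-Arg-AMC or Boc-Leu-Gly-Arg-AMC for Factor Xa). Enzyme diluted to 0.5 nM, added last to two-fold compound series; kinetic read at 30° C, 30 min (Factor Xa 60 min); IC50 fitted.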

Trypsin = test: Dose response assay for protease inhibitors: trypsin; format: biochemical; conditions: selectivity, trypsin over Factor XIa
How it was run: as §1

Factor Xa = Factor Xa (Homo sapiens (Human), UniProt P00742); test: Dose response assay for protease inhibitors: Factor Xa; format: biochemical; conditions: selectivity, Factor Xa over Factor XIa
Chain of Factor Xa (P00742 235-488): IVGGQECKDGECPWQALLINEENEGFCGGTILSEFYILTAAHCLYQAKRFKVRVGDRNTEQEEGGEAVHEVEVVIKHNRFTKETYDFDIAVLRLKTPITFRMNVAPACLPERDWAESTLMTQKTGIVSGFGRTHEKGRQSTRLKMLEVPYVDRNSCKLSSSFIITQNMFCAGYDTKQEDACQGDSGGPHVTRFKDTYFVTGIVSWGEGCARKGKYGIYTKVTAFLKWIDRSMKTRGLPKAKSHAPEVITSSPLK
Chain of Factor Xa (P00742 41-179 partner): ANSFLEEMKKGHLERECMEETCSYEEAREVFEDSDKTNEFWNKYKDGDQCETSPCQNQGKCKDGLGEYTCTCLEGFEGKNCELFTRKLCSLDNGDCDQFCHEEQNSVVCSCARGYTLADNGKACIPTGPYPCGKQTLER
How it was run: as §1

[1] = Caco-2 cell permeability assay; format: in vitro ADME, human; conditions: human, 37° C.
Method: (§2) The following procedure was used to determine the ability of a test compound to cross Caco-2 cells (human intestinal epithelial cells derived from a colorectal adenocarcinoma). The cells were seeded at 1×10^5 cells/cm^2 in 96-well Multiscreen™ plates (Millipore). Permeability assays were performed with the cells at days 21-25 post-seeding. Cells are typically used for 15 consecutive passages in culture.
(§3) This assay can be performed in either the apical to basolateral (A-B) or basolateral to apical (B-A) direction. The test compound was prepared at 10 μM in HBSS-MES (pH 6.5) or HBSS-HEPES (pH 7.4) with a final DMSO concentration of 1%. The working solution was then centrifuged and the supernatant added to the donor side. The assay plate was incubated at 37° C. with gentle shaking for 60 min or 40 min for the A-B or B-A assay, respectively. Samples were aliquoted from the donor side at time zero and the end point, and from the receiver side at the end point.
(§4) Reference compounds, propranolol (highly permeable), labetalol (moderately permeable), ranitidine (poorly permeable), and colchicine (P-glycoprotein substrate) were included in each assay.
(§5) Samples are analyzed by HPLC-MS/MS using selected reaction monitoring. The HPLC system consists of a binary LC pump with autosampler, a C-18 column, and a gradient.
(§6) The apparent permeability coefficient (Papp) of the test compound (Equation 2) and its recovery (Equation 3) are calculated as follows:
(§7) [formula] wherein A is the surface area of the cell monolayer (0.11 cm^2), C is concentration of the test compound expressed as peak area, D denotes donor, and R is receiver. “0”, “mid,” and “end” denote time at zero, mid-point, and end of the incubation, respectively. Δt is the incubation time. V is the volume of the donor or receiver.
(§8) This is most likely due to non-specific binding or degradation.

[2] = Aqueous solubility in PBS by HPLC-UV/VIS; format: physicochemical; conditions: PBS pH 7.4, 2% DMSO, 24 h at room temperature
Method: The following procedure was used to determine the aqueous solubility of a test compound in phosphate buffered saline (PBS-NaCl 137 mM, KCl 2.7 mM, Na2HPO4 8.1 mM, KH2PO4 1.5 mM, pH 7.4) in 96-well plate format by HPLC-UV/VIS analysis. The test compound was prepared at 200 μM in PBS from a 10 mM DMSO stock solution. The final DMSO concentration was 2%. The PBS buffer samples were mixed thoroughly followed by incubation at room temperature for 24 h. At the end of the incubation, the PBS buffer samples were centrifuged and supernatants analyzed by HPLC. The aqueous solubility (μM) of the test compound in PBS was determined by comparing the peak area of the principal peak in the calibration standard (200 μM) with the peak area of the corresponding peak in each of the PBS samples. The range of the assay was approximately 0.5 μM to 200 μM. The reference compounds used in each assay were metoprolol, rifampicin, ketoconazole, phenytoin, haloperidol, simvastatin, diethylstilbestrol, and tamoxifen ranking from fully soluble (200 μM) to poorly soluble (<1 μM).

[3] = Plasma protein binding by equilibrium dialysis; format: in vitro ADME; conditions: both sexes, pH 7.4, pooled human plasma, 4 hours at 37° C., read-out: PPB (%)
Method: (§9) The following procedure was used to determine the plasma protein binding of a test compound in pooled plasma from human (mixed gender) via equilibrium dialysis in a 96-well plate format. The dialysate compartment was loaded with phosphate-buffered saline (pH 7.4) and the sample side was loaded with plasma spiked with the test compound at a concentration of 10 μM. After loading, samples were covered and incubated for 4 hours at 37° C. After incubation, each compartment was sampled, diluted with acetonitrile/buffer and centrifuged. The supernatants were analyzed by HPLC-MS/MS. The analyte peak areas obtained from HPLC-MS/MS analysis of each sample were used to calculate protein binding according to the following equation (Equation 4):
(§10) [formula] where: AREAp=Peak area of analyte in protein matrix; AREAb=Peak area of analyte in buffer.
(§11) The amount measured in the plasma compartment included both free and bound drug, while that on the buffer side represented free drug only; the differences were used to calculate the percentage plasma protein bound. Three reference compounds were tested in each assay: acebutolol, quinidine and warfarin.

Caco-2 cells = test: Caco-2 cell permeability assay; format: in vitro ADME, human; conditions: Papp, 10 μM, 37° C.
Method: as §2, §3, §4, §5, §6, §7, §8

human plasma protein = test: Plasma protein binding by equilibrium dialysis; format: in vitro ADME; conditions: pooled human plasma, 10 μM, 4 hours at 37° C.
Method: as §9, §10, §11

Chain of Factor XIa (P03951 388-625): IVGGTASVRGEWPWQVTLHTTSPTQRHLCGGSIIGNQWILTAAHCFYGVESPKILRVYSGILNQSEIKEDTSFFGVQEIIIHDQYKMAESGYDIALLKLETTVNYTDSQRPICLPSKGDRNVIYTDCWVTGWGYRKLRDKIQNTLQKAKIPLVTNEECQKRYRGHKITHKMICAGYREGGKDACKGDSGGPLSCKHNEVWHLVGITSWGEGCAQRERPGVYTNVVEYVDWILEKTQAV
Chain of Factor XIa (P03951 19-387 partner): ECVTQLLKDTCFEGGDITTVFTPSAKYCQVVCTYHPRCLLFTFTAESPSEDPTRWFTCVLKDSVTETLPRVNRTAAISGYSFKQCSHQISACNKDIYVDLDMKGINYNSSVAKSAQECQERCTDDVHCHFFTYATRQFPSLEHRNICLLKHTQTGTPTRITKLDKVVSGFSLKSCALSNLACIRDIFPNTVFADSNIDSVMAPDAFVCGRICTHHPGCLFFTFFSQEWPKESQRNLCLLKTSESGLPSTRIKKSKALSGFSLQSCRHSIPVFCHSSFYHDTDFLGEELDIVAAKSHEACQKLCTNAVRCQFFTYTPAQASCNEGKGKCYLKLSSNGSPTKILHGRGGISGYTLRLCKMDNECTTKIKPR

Compound | pIC50 (Factor XIa) | Ratio: Thrombin/FXIa (Thrombin) | Ratio: Trypsin/FXIa (Trypsin) | Ratio: FXa/FXIa (Factor Xa) | Papp A→B at 60 min, 10 μM ([1]; Caco-2, apical to basolateral, 60 min) [×10⁻⁶ cm/s] | Papp B→A at 40 min, 10 μM ([1]; Caco-2, basolateral to apical, 40 min) [×10⁻⁶ cm/s] | solubility at 24 h ([2]; phosphate buffered saline, aqueous buffer, kinetic from dmso stock) [µM] | fraction unbound at 4 h, 10 μM [3] | Caco-2 Permeability (A-B) (Caco-2 cells; apical to basolateral, 60 min) | Caco-2 Permeability (B-A) (Caco-2 cells; basolateral to apical, 40 min) | Aqueous Solubility (uM, in PBS) [2] | PPB (%) (human plasma protein)
CC[C@@H](NC(=O)N1C(=O)[C@H](Cc2ccnc(N)c2)[C@H]1C(=O)N(C)c1nccn1C)c1cc(F)ccc1F [Compound 1-84, (2S,3R)-3-((2-aminopyridin-4-yl)methyl)-N2-(1-methyl-1H-imidazol-2-yl)-N1-((R)-1-(2,5-difluorophenyl)propyl)-N2-methyl-4-oxoazetidine-1,2-dicarboxamide] | > 8.00 | H (“H” indicates 101-1000) | G (“G” indicates 1-100) | I (“I” indicates > 500) | < 10 | 11 to 30 | > 100 | 0.1 to 0.5 |  |  |  | 
(2S,3R)-3-((2-aminopyridin-4-yl)methyl)-N2-(1-methyl-1H-imidazol-2-yl)-N1-((R)-1-(3-fluorophenyl)propyl)-N2-methyl-4-oxoazetidine-1,2-dicarboxamide [Compound 1-79] | > 8.00 | H (“H” indicates 101-1000) | G (“G” indicates 1-100) | I (“I” indicates > 500) |  |  |  |  | P (“P” indicates < 10 × 10^−6 cm/s) | Q (“Q” indicates 11-30 × 10^−6 cm/s) | W (“W” indicates > 100 μM) | Z (“Z” indicates 50-90%)
